Experimental data reported in patent US20240172752A1, “7-OXA-3,4-DIAZABICYCLO[4.1.0]HEPT-4-EN-2-ONE COMPOUND AND HERBICIDE” (Nippon Soda Co., Ltd., priority 2021, published 2024).

Key:
[1] = system: Abutilon theophrasti; experiment: Soil treatment herbicidal test, weed killing rate, Abutilon theophrasti; assay type: in vivo; conditions: 672 h, 250 g per hectare, after 4 weeks, read-out: herbicidal activity (weed killing rate) with respect to Abutilon theophrasti
Description: (§1) POA allylphenyl ether (4.1 parts by weight), POE-POP glycol (1 part by weight), POE sorbitan laurate (0.8 parts by weight), glycerin (2.6 parts by weight), dimethylformamide (65.9 parts by weight), N-methylpyrrolidone (5.1 parts by weight), cyclohexanone (15.4 parts by weight), and aromatic hydrocarbons (5.1 parts by weight) were mixed and dissolved to prepare an emulsion. The compound of the present invention (4 mg) was dissolved in this emulsion (100 μL) to prepare a test emulsion. POA means “polyoxyalkylene”, POE means “polyoxyethylene”, and POP means “polyoxypropylene”.
(§2) A 70 cm^2 pot was filled with soil, and seeds of Digitaria ciliaris, Setaria faberi, Abutilon theophrasti and Amaranthus blitum were sown into the surface layer which was covered lightly with soil. The next day, the above test emulsion was diluted so as to achieve a predetermined amount of active ingredient and sprayed on the soil surface with a small sprayer at a spray water volume of 2,860 L per hectare.
(§3) After 4 weeks, the above ground weights of weeds in the untreated and treated areas were measured for each weed, and the weed killing rate was calculated by the following calculation formula.
(§4) Weed killing rate (%)=[(above ground weight of weeds in untreated area)−(above ground weight of weeds in treated area)/(above ground weight of weeds in untreated area)]×100

[2] = system: Amaranthus blitum; experiment: Soil treatment herbicidal test, weed killing rate, Amaranthus blitum; assay type: in vivo; conditions: 672 h, 250 g per hectare, after 4 weeks, read-out: herbicidal activity (weed killing rate) with respect to Amaranthus blitum
Description: as §1, §2, §3, §4

Row | Compound | melting point [°C] | pest or weed control at 250 g/ha [1] [%] | pest or weed control at 250 g/ha [2] [%]
1 | COC12OC1(c1ncc(Cl)cc1S(C)(=O)=O)C=NN(C)C2=O (centres unmarked) [Compound A-2] |  | ≥ 80 | 
2 | COC12OC1(c1ncc(C(F)(F)F)cc1S(C)(=O)=O)C=NN(C)C2=O (centres unmarked) [Compound A-6] |  | ≥ 80 | ≥ 80
3 | COC12OC1(c1ccc(C(F)(F)F)nc1S(=O)(=O)N1CCOCC1)C=NN(C)C2=O (centres unmarked) [Compound A-4] |  | ≥ 80 | ≥ 80
4 | COC12OC1(c1cc3cccnc3nc1C(F)(F)F)C=NN(C)C2=O (centres unmarked) [Compound A-7] | 203 to 210 | ≥ 80 | ≥ 80
5 | COC12OC1(c1ccc(C(F)(F)F)nc1S(C)(=O)=O)C=NN(C)C2=O (centres unmarked) [Compound A-1] |  | ≥ 80 | ≥ 80
6 | COCCOCc1nc(C(F)(F)F)ccc1C12C=NN(C)C(=O)C1(OC)O2 (centres unmarked) [Compound A-5] |  | ≥ 80 | ≥ 80
7 | COC12OC1(c1cnc(C(F)(F)F)cc1S(C)(=O)=O)C=NN(C)C2=O (centres unmarked) [Compound A-8] |  | ≥ 80 | ≥ 80
8 | COC12OC1(c1cc(C(F)(F)F)nn1CS(C)(=O)=O)C=NN(C)C2=O (centres unmarked) [Compound A-25] |  | ≥ 80 | ≥ 80

More lines, main results first:

Row | melting point [°C] | Compound | pest or weed control at 250 g/ha [1] [%] | pest or weed control at 250 g/ha [2] [%]
9 | 175 to 179 | COC12OC1(c1cc3ccncc3n(-c3ccc(F)cc3)c1=O)C=NN(C)C2=O (centres unmarked) [Compound A-18] |  | 
10 | 153 to 155 | COC12OC1(c1nn(C)c(=O)c(C)c1Cl)C=NN(C)C2=O (centres unmarked) [Compound A-23] | ≥ 80 | 
11 | 238 to 239 | COC12OC1(c1cc3cccnc3c(Cl)c1C(F)(F)F)C=NN(C)C2=O (centres unmarked) [Compound A-9] |  | 
12 | 191 to 194 | COC12OC1(c1cn(C)c(=O)n(-c3ccc(F)cc3)c1=O)C=NN(C)C2=O (centres unmarked) [Compound A-17] |  | 
13 | 180 to 182 | COC12OC1(c1nn(C)c(=O)n(-c3ccc(F)cc3)c1=O)C=NN(C)C2=O (centres unmarked) [Compound A-10] |  | 
14 | 171 to 172 | COC12OC1(c1ccc(C(F)(F)F)c3ncccc13)C=NN(C)C2=O (centres unmarked) [Compound A-24] | ≥ 80 | ≥ 80
15 | 128 to 130 | COC12OC1(c1ccc(C(F)(F)F)n(C)c1=O)C=NN(C)C2=O (centres unmarked) [Compound A-11] |  | 
